Data published in patent US9974290B2, “Animal model and method for studying gene-gene interactions” (UNIVERSITY OF SOUTH FLORIDA, priority 2015, dated 2018).

System: Raji B cells
Experiment: Apoptosis assay in Raji B cells treated with PS-341
Assay type: cell-based
Settings: Raji B cells treated with PS-341 (FIG. 11B); effect can be rescued by LRBA knockdown
Protocol: FIGS. 2A, 2B, 2C-1, 2C-2, 2D, and 2E. LRBA interacts with NFkB and regulates cell survival. FIG. 2A: LRBA was stably knocked down in Raji cells by the short hairpin (sh) RNA technique in Raji B cells. NFkB activity was measured by an NFkB luciferase reporter. FIG. 2B: The phospho-NFkB (pS529) levels were detected by Phosflow Kit. FIGS. 2C-1 and 2C-2: TNFα (FIG. 2C-1) and IL10 (FIG. 2C-2) proteins levels were measured by the human Th1/Th2 cytokine bead-array kit. FIG. 2D: Apoptosis assay. Raji B cells were treated with various stress stimuli including proteasome inhibitors, serum starvation and bacterial infection. Apoptosis was detected by Annexin V-PE and 7-AAD. FIG. 2E: LRBA (−/−) ES cell clones were obtained by culturing LRBA (+/−) ES cells with 1 mg/ml G418 for ˜two weeks. Equal number of ES cells was plated into each well of a 96-well plate. The average cell numbers were counted from three wells at each time point.
FIGS. 11A-11E. LRBA interacts with important genes in regulating apoptosis and proliferation. […] FIG. 11A: NFkB activity was measured by an NFkB luciferase reporter. The Phosphorylated (P−) NFkB (pS529) levels were detected by Phosflow Kit. […] The average cell numbers were counted from three wells at each time point. […] Cell lysates from WT or LRBA KD stable Raji cells were analyzed by Western blot. Protein levels were quantified with Quantity One software. […]

CC(C)C[C@H](NC(=O)[C@H](Cc1ccccc1)NC(=O)c1cnccn1)B(O)O [PS-341]
apoptosis: promotes apoptosis
